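The compound was tested at five concentrations on cells cultured in 96-well plates, with a 48-hour exposure period. GI50 marks 50% less growth. TGI is the concentration that stops growth completely.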
Experiments:
Assay in all cases: NCI tumour cell line growth inhibition, 48 h
[1] = system: ACHN renal
[2] = system: CAKI-1 renal
[3] = system: HCT-116 colon
[4] = system: HT29 colon
[5] = system: MDA-MB-435
[6] = system: MOLT-4 leukemia
[7] = system: RPMI-8226 leukemia
[8] = system: SF-539 CNS
[9] = system: SK-MEL-28 melanoma
[10] = system: TK-10 renal

Structure (SMILES)	GI50 [1] [µM]	TGI [1] [µM]	GI50 [2] [µM]	TGI [2] [µM]	GI50 [3] [µM]	TGI [3] [µM]	GI50 [4] [µM]	TGI [4] [µM]	GI50 [5] [µM]	TGI [5] [µM]	GI50 [6] [µM]	TGI [6] [µM]	GI50 [7] [µM]	TGI [7] [µM]	GI50 [8] [µM]	TGI [8] [µM]	GI50 [9] [µM]	TGI [9] [µM]	GI50 [10] [µM]	TGI [10] [µM]
Cc1onc(-c2ccccc2)c1C(=O)N/N=C/c1cc(Cl)cc(Cl)c1O	2.67	> 100	1.84	10.5	4.11	> 100	8.63	58.7	6.39	> 100	3.53	22.9	5.61	49.7	2.65	11.6	6.51	> 100	5.01	> 100
Oc1c(Cl)cc(Cl)c(Cl)c1CNCCNCc1c(O)c(Cl)cc(Cl)c1Cl	0.549	7.22	1.09	9.23	0.731	8.52	5.83	> 50	1.58	9.87	0.561	> 50	1.51	> 50	0.439	5.32	1.02	8.64	2.02	11.2
O=C(CN(/C=C/C(=O)C(F)(F)F)c1ccc(Cl)cc1)c1ccc(Cl)cc1	8.01	20.7	1.98	9.5	4.09	20.7	7.41	> 100	7.83	29	8.82	37.4	11.5	37.7	19.2	36.9	16.6	39.5	4.78	19.3
O=c1c2c(nc3n1CCS3)[nH]c1cc([N+](=O)[O-])ccc12	> 100	> 100	> 100	> 100	> 100	> 100	> 100	> 100	> 100	> 100	81.5	> 100	> 100	> 100	> 100	> 100	> 100	> 100	> 100	> 100
C/C=C(\C)c1cc(=O)c2c(C)cc3c(c2o1)C(=O)c1c(O)c(C2CC(C)(N(C)C)C(OC(C)=O)C(C)O2)cc(C2CC(N(C)C)C(O)C(C)O2)c1C3=O (stereo not given)	–	10	–	5.1	–	6.33	–	6.75	–	3.45	–	> 15.2	–	> 50	–	2.59	–	8.41	–	> 30
CCOC(=O)Cc1c(C)c2cc(C(=O)c3ccccc3)c(O)cc2oc1=O	–	> 100	–	> 100	–	> 100	–	> 100	–	> 100	–	> 100	–	> 100	–	58.3	–	> 100	–	> 100
COc1cc(/C=C/c2cc(/C=C/c3ccc(O)c(OC)c3)n(C(=O)c3ccc(Cl)cc3)n2)ccc1O	1.03	13.7	2.97	15	2.15	47.9	3.42	> 100	0.449	10.7	1.64	11.9	1.83	6.33	1.24	6.07	2.49	12.2	4.2	14.7
Oc1ccc(C=Nc2ccccc2O)cc1	–	> 100	–	> 100	–	> 100	–	> 100	–	33	–	> 100	–	> 100	–	> 100	–	> 100	–	> 100
COc1ccccc1Nc1cc(O)c2c(=O)cc(-c3ccccc3)oc2c1	3.38	13	4.24	20.3	3.31	> 100	3.64	> 100	0.36	2.03	4.08	> 100	4.51	> 100	2.73	10.4	3.64	25.8	10.4	28.6

— PubChem BioAssay (NCI)
